Calls of active or inactive are those of the source.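 Rule for the calls: active = compounds giving half or more protection of infected cells from virus-caused growth loss, again on retest; inactive = the rest.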 Where a SMILES comes first, the peptide text is derived from it.

This assay relates to CEM cells HIV-1 protection, formazan growth assay. The assay can be described thus: NCI AIDS Antiviral Assay. To be noted: for IC50: measured here: growth of uninfected CEM cells. In a few lines: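 Five concentrations of each compound were applied to infected and uninfected human CEM cells. Protection from HIV-1 was judged from growth measured with a soluble formazan assay.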

On to `CC(CCC/C=C/CCCN(C)C(=N)N)CC(C)C1OC(=O)C(C)C(O)/C=C/C(C)C(O)C(C)C(O)C(C)C(O)CCCC(O)CC2(O)OC(CC(OC(=O)CC(=O)O)CC(O)CC(O)C(C)C(O)/C=C/C=C/C1C)CC(O)C2O` (configuration not stated), for which the result was inactive. With `COc1ccc2oc3cc(O)cc(OC)c3c(=O)c2c1O`, the EC50 (as a rule, the concentration needed to bring the measured effect to its halfway point) was > 200 µM and the IC50 – broadly, the concentration that gives 50% inhibition – worked out at 145 µM. For `COc1ccc(C(=O)C(c2ccc(OC)cc2)C2C(=O)Oc3ccccc32)cc1` (configuration not stated) the same measures were > 34.7 µM and > 34.7 µM.

Regarding `NCCN.O=N[O-].O=N[O-].O=N[O-].O=N[O-].[Co+3].[K+]`, the EC50 is > 724 µM and the IC50 came out at 219 µM. For `CC(=O)OCC1OC(N2C(=S)N[C@H]([C@@H](O)[C@H](O)[C@H](O)CO)[C@H]2O)C(OC(C)=O)C(OC(C)=O)C1OC(C)=O` (some centres not stated), the EC50 is > 200 µM and the 50% inhibitory concentration (IC50) is > 200 µM.

For the molecule `NC(=Nc1nc(-c2ccccn2)cc2ccccc12)c1ccccn1`, the EC50 was > 22.4 µM and the IC50 was found to be 0.0851 µM.

Consider `N#Cc1c2c(cn3c1nc1ccccc13)Cc1ccccc1-2`, for which the EC50 is > 200 µM and the IC50 was > 200 µM. Regarding `CSc1nc2c(c(O)c(C)c(=O)n2C2OCC(OC(C)=O)C(OC(C)=O)C2OC(C)=O)c(=O)n1C` (configuration not stated), the EC50 is > 70.8 µM and the 50% inhibitory concentration (IC50) is > 70.8 µM. Take `CC(=O)OCC1OC(N2C(C)=C(C(C)=O)C(c3ccco3)C(C#N)=C2S)C(OC(C)=O)C(OC(C)=O)C1OC(C)=O` (configuration not stated): the EC50 is > 200 µM and the half-inhibitory concentration (IC50) stood at 110 µM. With `CN1CCN(C2=C(Cl)C3(OCCS3)C(F)(F)C2(F)F)CC1` (configuration not stated), the EC50 was > 132 µM and the IC50 was 45.7 µM.

`COc1c(F)c(F)c(/C(O)=C\c2nc3ccccc3[nH]c2=O)c(F)c1F`: the EC50 is > 200 µM and the IC50 was found to be 195 µM. In the case of `N.N.N.O=N[O-].O=N[O-].O=N[O-].[Co+3]`, the outcome was inactive.

On to `CCC(C)C(NC(=O)C(CCCN=C(N)N)NC(=O)C(CC(=O)O)NC(=O)C(Cc1cnc[nH]1)NC(=O)C(N)CC(C)C)C(=O)NC(C(=O)NC(CC(C)C)C(=O)NCC(=O)NC(CC(=O)O)C(=O)O)C(C)CC` (configuration not stated) (H-LHDRIILGD-OH; configuration not given here), for which the EC50 is > 58.9 µM and the half-inhibitory concentration (IC50) was > 58.9 µM. As to `O=C(Nc1cccc(NC(=O)C(=O)C2CCC3=C(Sc4ccccc4N3)C2=O)n1)C(=O)C1CCC2=C(Sc3ccccc3N2)C1=O` (configuration not stated), the EC50 is > 75.9 µM and the half-maximal inhibitory concentration (IC50) amounted to 63.1 µM. Turning to `Fc1ccc(N=C/C=C/Nc2ccc(F)cc2)cc1`, the outcome was inactive. As for `COC1=C(C(=O)OC(C)(C)C)[C@]2(C)C(C(=O)OC(C)(C)C)C(OC)=C(C(=O)OC(C)(C)C)[C@]2(C)C1C(=O)OC(C)(C)C` (some centres not stated), the result was inactive. Take `C=CC(C)(C)C(=C)C(=O)Nc1ccccc1I`: the EC50 was > 200 µM and the half-inhibitory concentration (IC50) is > 200 µM. Take `CCN=C1NN=C(c2ccccc2)c2cc(Cl)ccc2N1`: the EC50 is > 120 µM and the IC50 was 21.9 µM. As for `COC(=O)C1(Cc2cccc(C)c2)Cc2c(C)cccc2C1=O` (configuration not stated), the EC50 was > 200 µM and the IC50 amounted to 32.4 µM. For `Cc1cc2nc(-c3ccccn3)c(-c3ccccn3)nc2cc1C`, the EC50 was > 200 µM and the half-inhibitory concentration (IC50) is > 200 µM.

`O=P(OCC1CCCO1)(OCC1CCCO1)OCC1CCCO1` (configuration not stated): the result was inactive.

Regarding `COC(=O)C12C=CC(C(=O)OC)(CC1)n1c(=O)n(-c3ccccc3)c(=O)n12`, the EC50 was > 200 µM and the IC50 was > 200 µM.

Consider `COc1cc(/C=C2\CCC(C)C3=C2N=c2s/c(=C/c4ccc(Cl)cc4)c(=O)n2C3c2cc(OC)c(OC)c(OC)c2)cc(OC)c1OC` (configuration not stated), for which the EC50 is > 200 µM and the IC50 turned out to be 102 µM. With `O=C(O)C1=CN=C(C(=O)O)NN1`, the EC50 was > 1150 µM and the IC50 came out at 617 µM. For `O=C1CC(C(O)CO)CC(=O)N1` (configuration not stated) the same measures were > 200 µM and > 200 µM. Regarding `CC1(C)OC[C@@H](O)[C@H](Br)CO1`, the EC50 was > 200 µM and the half-maximal inhibitory concentration (IC50) is 77.6 µM. For `CC(=O)Nc1ncc(Sc2ccc([N+](=O)[O-])cc2)s1` the same measures were > 200 µM and > 200 µM. With `O=C1c2ccccc2-n2nnnc2C2CSCN12` (configuration not stated), the EC50 was > 200 µM and the IC50 was > 200 µM. Consider `CCCCOC/N=C(/N)NC#N`, for which the EC50 is > 525 µM and the IC50 is > 525 µM. `CCSC1(SCC)CCN(C=NC(C)(C)C)C1`: the EC50 is > 912 µM and the IC50 is > 912 µM. With `Cc1csc(CCC(N)C(=O)O)n1` (configuration not stated), the result was inactive. With `CC1=C(C(=O)Nc2ccccc2C)C(c2ccccc2)C(C(=O)Nc2ccccc2C)=C(C)N1`, the EC50 is > 11.5 µM and the IC50 is > 11.5 µM.

Take `O=C(O)c1c(Br)c(Br)c(Br)c(Br)c1C1c2ccc(O)cc2Oc2cc(O)ccc21`: the 50% effective concentration (EC50) is 2.95 µM and the IC50 is 174 µM. As to `COC1=NN2C(OC)(c3ccccc3)c3c(-c4ccccc4)sc(-c4ccccc4)c3C2(c2ccccc2)S1` (configuration not stated), the result was inactive. For the molecule `O=[N+]([O-])c1c(Cl)cccc1-c1c[nH]cc1Cl`, the EC50 was > 263 µM and the half-inhibitory concentration (IC50) was found to be 61.7 µM.

For the molecule `COc1nc(N2CCNCC2)nc2c1CCCC2`, the result was inactive. In the case of `CC(=O)N1c2ccccc2[C@H]2CCc3c([nH]c4ccccc34)[C@H]21`, the EC50 was > 20 µM and the IC50 is 12.9 µM. For `CCOP(=O)(OCC)C(Nc1cccc([N+](=O)[O-])c1)c1ccccc1` (configuration not stated) the same measures were > 200 µM and 174 µM. On to `CC(O)CN(N)CC(C)O` (configuration not stated), for which the result was inactive. Regarding `CC1=NN2C(=O)C(C)SC2=NC(C)(C)C1` (configuration not stated), the EC50 is > 1120 µM and the IC50 was > 1120 µM. With `COc1ccc(C2CCC(=O)CC2(O)C(=O)O)cc1` (configuration not stated), the EC50 was > 251 µM and the IC50 was > 251 µM. `CCOC(=O)c1c(-c2ccc(Cl)cc2)c(C#N)c(=S)n(C2OC(COC(C)=O)C(OC(C)=O)C(OC(C)=O)C2OC(C)=O)c1C` (configuration not stated): the EC50 is > 200 µM and the IC50 amounted to 36.3 µM. Regarding `O=c1[nH]cc(NS(=O)(=O)O)c(=O)[nH]1`, the EC50 was > 200 µM and the IC50 was > 200 µM.

Consider `O=C(O)c1ccc(CSc2ccccc2C(=O)O)c([N+](=O)[O-])c1`, for which the EC50 is > 759 µM and the half-maximal inhibitory concentration (IC50) was > 759 µM. `CCc1cccc(C(C)(C)C)c1NC(=S)/N=C/C(C(=O)c1ccccc1)=C(\O)c1ccccc1`: the EC50 is > 200 µM and the IC50 is 51.3 µM.

With `CCN(CC)C1=CC(=O)n2cccc21`, the EC50 was > 200 µM and the IC50 is > 200 µM. Turning to `CCOC(=O)c1ccc(N2N=NC3C4CC(C5CCCC54)C32)cc1` (configuration not stated), the EC50 was > 200 µM and the IC50 was > 200 µM. For `NC(N)=NCCN1CCCCCc2ccccc21`, the EC50 is > 200 µM and the 50% inhibitory concentration (IC50) came out at 20.9 µM. As for `CC1(CC(=O)O)OC2CCCCCC2O1` (configuration not stated) (tested in a mixture with another compound), the result was inactive. As for `COc1cc(/C=C2\C(=O)N(C(=O)c3ccc(NC(C)=O)cc3)N=C2C)ccc1O`, the EC50 is > 66.1 µM and the IC50 was > 66.1 µM. For `COc1cccc(C2C(C(=O)O)=C(CO)Oc3cc4c(cc32)OCO4)c1` (configuration not stated), the outcome was inactive.

As to `CCCCn1c(=O)c(N=O)c(N)n(CC)c1=O`, the EC50 was > 200 µM and the IC50 was 174 µM.

Consider `CCCCNC(=S)Nc1nc(C(=O)NNC(=S)NCC)cs1`, for which the EC50 is > 200 µM and the IC50 is > 200 µM. `C[C@@H](Br)[C@@H]1CC[C@H]2c3[nH]c4ccccc4c3CCN2C1`: the EC50 is > 200 µM and the IC50 amounted to 17.4 µM. As for `COc1ccc(/C=C/C(=O)c2ccccc2)cc1`, the EC50 is > 41.7 µM and the 50% inhibitory concentration (IC50) came to 24.5 µM. As for `CCCCCCCCCCCCS(=O)(=O)O.[Pb]`, the EC50 was > 200 µM and the IC50 is > 200 µM. Take `CCOC(=O)c1c(SC(=O)/C=C/c2ccccc2)n(-c2ccccc2)c(=S)n(-c2ccccc2)c1=O`: the EC50 was > 200 µM and the IC50 came to 79.4 µM. Consider `COC(=O)c1cc2ccccc2c(CS(=O)(=O)O)c1O`, for which the EC50 is > 200 µM and the IC50 worked out at 56.2 µM.

As for `CCOC(=O)C(NC(=O)c1ccc(N=NN(C)C)cc1)C(C)C` (configuration not stated), the EC50 was > 407 µM and the IC50 was found to be 309 µM. `CCC12CC[C@H](C#N)N3CCc4c(n(c5ccccc45)C(=O)C1)C32` (some centres not stated): the outcome was inactive. Regarding `Cn1cc(NC(=O)Nc2cc(C(=O)Nc3cc(C(=O)Nc4cc(S(=O)(=O)O)c5cc(S(=O)(=O)O)cc(S(=O)(=O)O)c5c4)n(C)c3)n(C)c2)cc1C(=O)Nc1cc(C(=O)Nc2cc(S(=O)(=O)O)c3cc(S(=O)(=O)O)cc(S(=O)(=O)O)c3c2)n(C)c1`, the concentration giving a half-maximal response (EC50) was 4.68 µM and the IC50 was determined as 224 µM. As to `O=c1/c(=C/c2ccc3c(c2)OCO3)sc2nnc(Cc3ccccc3)n12`, the EC50 is > 20 µM and the IC50 was > 20 µM. For `CC(C)/C(Cl)=N\OC(=O)NNc1ccccc1`, the EC50 was > 20 µM and the IC50 was 5.75 µM. `CCCCC[C@@H]1CCC[C@H]2NC(CCCCC3OCCO3)CC[C@@H]12` (some centres not stated): the outcome was inactive. Turning to `COP1(=O)OCc2cnccc2O1` (configuration not stated), the EC50 is > 200 µM and the IC50 was > 200 µM. `Oc1ccc(-c2ccc(O)cc2O)c(O)c1`: the EC50 is > 200 µM and the concentration for half-maximal inhibition (IC50) came out at 132 µM. As to `CC1OC2=N[C@@H]1C(=O)N[C@@H](C(C)C)C1=N[C@H](C(=O)N[C@@H](C(C)C)C3=N[C@H](C(=O)N[C@@H](C(C)C)C4=N[C@H](C(=O)N[C@H]2C(C)C)C(C)O4)C(C)O3)C(C)O1` (some centres not stated), the EC50 is > 200 µM and the half-maximal inhibitory concentration (IC50) was > 200 µM.

As to `Clc1cccc2nncc(N3CC3)c12`, the outcome was inactive.

With `COC12OCCN(C)C1=CC(=O)C1(C)N=NCC12` (configuration not stated), the outcome was inactive. Consider `Clc1ccc(/C=N\N2CCCCCC2)cc1Cl`, for which the EC50 was > 200 µM and the IC50 amounted to 35.5 µM. Take `On1ccccc1=S`: the EC50 was > 2 µM and the IC50 was 1.32 µM.

(Values after PubChem BioAssay AID179 (DTP/NCI, 2004).)
